Like-named read-outs stand apart in the source and are kept apart here. Marks after values point to notes of the source that are not given here.
Legend:
P. falciparum strain 3D7 = assay: Inhibitor susceptibility dose-response assay (SYBR-Green I), P. falciparum 3D7; assay type: cell-based, Plasmodium falciparum; settings: Plasmodium falciparum, read-out: IC50 (S.D.), P. falciparum-3D7
Experimental: (§1) The P. falciparum strains 3D7 and Dd2 were obtained from the Walter and Eliza Hall Institute (Melbourne, Australia) and the Malaria Research and Reference Reagent Resource, respectively. […] B. divergens parasites were maintained and assayed in mixed stages without synchronization.
(§2) Ring-stage P. falciparum (1%-parasitemia starting, 1%-hematocrit) and asynchronous B.divergens (0.5%-parasitemia starting, 3%-hematocrit) were incubated with plated compounds for 72h, and ring-stage P. knowlesi (1%-parasitemia starting, 1%-hematocrit) for 48h, before lysis and staining with dye. To quantify the species-specificity of the inhibitors, we divided the range of IC50s across the 4 test lines by the average IC50 across the same lines: inhibitors with increased scores show species-specific activity and reduced scores indicate broad-spectrum, pan-species activity.

uninfected RBCs [1] = assay: Cellular phosphatidylserine exposure assay (annexin V flow cytometry);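 note: flow cytometry recording 10,000 events per condition, gated on single cells, with the two experiments using blood from separate donors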
Description: (§3) We analyzed samples using a volumetric MACSQuant Analyzer Flow Cytometer (Miltenyi Biotec), manually resuspending each row immediately prior to sample uptake. We recorded 10,000 total events for each condition at the instrument-defined low flow rate. We assessed all compounds in 2 separate experiments with blood from different donors. […] All samples were gated for single cell events.

293T = tested on: 293T; parameters: method as in PMID 19662183; settings: cellular proliferation ref PMID 19662183; read-out: Micromolar IC50 (293T); cited from earlier work
P. knowlesi YH1 strain = assay: microbe, parasite or virus in culture; assay type: cell-based, Plasmodium knowlesi; settings: Plasmodium knowlesi, 48 h, read-out: IC50 (S.D.), P. knowlesi
Experimental: as §1, §2

P. falciparum strain Dd2 = assay: Inhibitor susceptibility dose-response assay (SYBR-Green I), P. falciparum Dd2; assay type: cell-based, Plasmodium falciparum; settings: Plasmodium falciparum, read-out: IC50 (S.D.), P. falciparum-Dd2
Experimental: as §1, §2

K562 = tested on: K562; parameters: method as in PMID 19662183; settings: cellular proliferation ref PMID 19662183; read-out: Micromolar IC50 (K562); cited from earlier work
in vitro = settings: human
Description: as §3

[2] = tested on: BdC9 line of B. divergens; assay: Inhibitor susceptibility dose-response assay (SYBR-Green I), B. divergens; assay type: cell-based, Babesia divergens; settings: for IC50: Babesia divergens, read-out: IC50 (S.D.), B. divergens; for fold higher doses required for 50% inhibition of B. divergens than of the Plasmodium spp. lines: B. divergens vs Plasmodium spp. lines
Experimental: as §1, §2

SW1990 = tested on: SW1990; parameters: method as in PMID 27487486; settings: cellular proliferation ref PMID 27487486; read-out: Micromolar IC50 (SW1990); cited from earlier work
Plasmodium spp. lines = assay: Inhibitor susceptibility assays, summary over the Plasmodium spp. lines; assay type: cell-based; settings: for IC50: approximate value given in text for the Plasmodium spp. lines, read-out: IC50 against the Plasmodium spp. lines; for antiparasitic activity in vitro, in words, Plasmodium spp.: Plasmodium spp. parasites
Description: The P. falciparum strains 3D7 and Dd2 were obtained from the Walter and Eliza Hall Institute (Melbourne, Australia) and the Malaria Research and Reference Reagent Resource, respectively. The P. knowlesi YH1 strain adapted for growth in human erythrocytes and the BdC9 line of B. divergens were previously reported ([Lim et al., 2013]; [Rezvani et al., 2022]). All parasite lines were maintained in continuous culture in human erythrocytes O+ purchased from a commercial source (Research Blood Components, Boston USA) in RPMI-1640 medium as described (eg [Rezvani et al., 2022]), typically at 2%-hematocrit. Plasmodium parasites were synchronized using sorbitol (5% [wt/vol] for both P. falciparum and P. knowlesi; for P. knowlesi, with addition of 20 mM Na-HEPES and 0.1 mg/ml BSA) ([Lambros and Vanderberg, 1979]) at least once in the week prior to assays. B. divergens parasites were maintained and assayed in mixed stages without synchronization.
as §2, with “We carried out dose-response assays in 384-well plates (40 µl assay volume) for measurement with SYBR-Green I dye ([Mandt et al., 2019]), with test compounds pre-printed into wells via use of a D300 Digital Dispenser (Hewlett-Packard). Ring-stage” for “Ring-stage”

H2228 = tested on: H2228; parameters: method as in PMID 30333870; settings: cellular proliferation ref PMID 30333870; read-out: Micromolar IC50 (H2228); cited from earlier work
[3] = experimental logP ref https://go.drugbank.com/drugs/DB08865; cited from earlier work
uninfected RBCs [4] = settings: 5x P. falciparum 3D7-IC50; 24, 48, 72h
Description: as §3

MEF = tested on: MEF; parameters: method as in PMID 29336889; settings: cellular proliferation ref PMID 29336889; read-out: Micromolar IC50 (MEF); cited from earlier work
Plasmodium berghei = tested on: Plasmodium berghei; parameters: method as in Wu et al., 2017; settings: mouse model of severe malaria with Plasmodium berghei ref Wu et al., 2017; cited from earlier work
P. falciparum 3D7 = assay: Co-administration with established antimalarials, IC50 shift; assay type: cell-based, Plasmodium falciparum; settings: P<0.05
Description: Our experimental compound set is weighted toward kinase inhibitors, reflecting the high degree of small molecule development in this target space.

P. falciparum (3D7) = assay: Assay for inhibition of parasite proliferation via RBC-targeting (transient exposure of RBCs, wash, then infection); assay type: cell-based, Plasmodium falciparum; settings: transient vs continued exposure; dose-response format where stated, n=3
Experimental: All plates were frozen for storage before assay. For assay, duplicate plates were preincubated with donor O+ RBCs at 2% hematocrit at 37°C in 50µL for 4-5 hours. Following preincubation, one but not the other plate in each pair was washed 4X in complete RPMI to dilute inhibitor. We transferred RBCs from both washed and unwashed plates to black, clear bottom 96-well plates (Corning Cat. No. 3904) and supplemented these suspensions with MACS-purified P. falciparum (3D7) schizonts for a starting parasitemia of 0.1% - 0.25% at 1% hematocrit. Following 72h incubation in standard culture conditions, samples were processed for SYBR-Green I signal ([Mandt et al., 2019]). […] To identify host-targeting compounds, we compared DMSO-treated to inhibitor-treated samples (Students t-test, paired). We carried out the assay with 1 µM mefloquine (Sigma-Aldrich Cat. No. M2319) as a control for reversible inhibition. All assays were conducted in biological triplicate, with each experiment utilizing different donor RBCs. For select compounds, we carried out this same assay in a dose-response series (n=3 experiments). Following normalization to DMSO-controls, we assessed inhibitor activity following transient exposure of RBCs by Two-Way ANOVA tests for repeated measures (Graphpad Prism v9): high P values indicate support for the null hypothesis that dose-dependent inhibition is not modulated by dilution after exposure, consistent with a direct inhibitory effect of the compounds on RBCs persisting after transient exposure.

[5] = 3D7, 72h, ring-stage, n=3 experiments (or 2 where indicated with *)
[6] = 24h, 5x P. falciparum 3D7-IC50, % of RBCs, mean of 2 experiments
[7] = 5x P. falciparum 3D7-IC50, % of RBCs, mean of 2 experiments
[8] = 72h, 5x P. falciparum 3D7-IC50, % of RBCs, mean of 2 experiments
[9] = DD2, 72h, ring-stage, n=3 experiments (or 2 where indicated with *)
[10] = uninfected RBCs (red blood cells), 1% hematocrit
[11] = 72h, asynchronous, n=3 experiments (or 2 where indicated with *)

| SMILES | IC50 (P. falciparum strain 3D7; [5]) [nM] | Phosphatidylserine exposure (%) 24h (uninfected RBCs [1]; [6]) [%] | Phosphatidylserine exposure (%) 48h (uninfected RBCs [1]; [7]) [%] | Phosphatidylserine exposure (%) 72h (uninfected RBCs [1]; [8]) [%] | IC50 (P. knowlesi YH1 strain) [nM] | IC50 (P. falciparum strain Dd2; [9]) [nM] | hemolysis at 24 h, 5 x P. falciparum 3D7-IC50 (in vitro; [10]) [%] | hemolysis at 48 h, 5 x P. falciparum 3D7-IC50 (in vitro; [10]) [%] | hemolysis at 72 h, 5 x P. falciparum 3D7-IC50 (in vitro; [10]) [%] | IC50 [2, 11] [nM] | IC50 (P. falciparum strain 3D7; 3D7, 72 h) [nM] | IC50 (Plasmodium spp. lines) [nM] | IC50 (P. falciparum strain Dd2; DD2, 72 h) [nM] | fold higher doses required for 50% inhibition of B. divergens than of the Plasmodium spp. lines [2] [fold] | IC50 ([2]; 72 h) [nM] | antiparasitic activity in vitro, in words, Plasmodium spp. (Plasmodium spp. lines) | antiparasitic activity in vitro, in words, B. divergens [2] | other results |
| --- | --- | --- | --- | --- | --- | --- | --- | --- | --- | --- | --- | --- | --- | --- | --- | --- | --- | --- |
| Cc1ccc(NC(=O)c2ccc(CN3CC[C@H](N(C)C)C3)c(C(F)(F)F)c2)cc1Nc1nccc(-c2cncnc2)n1 [Bafetinib] | 2000 | 2 | 2 | 4 | 2000 | 3000 | 1 | 6 | 4 | 12000 |  |  |  |  |  |  |  | IC50 (293T): 2.2 nM; IC50 (K562): 1.1 nM |
| CCCC[C@@H](C=O)NC(=O)[C@H](CC(C)C)NC(=O)OCc1ccccc1 [Calpeptin] |  | 2 | 2 | 5 | 900 |  | 0 | 8 | 17 |  | 1000 | ~1000 | 1300 | > 30 | 40000 |  |  | IC50 (SW1990): 74200 nM |
| C[C@@H](Oc1cc(-c2cnn(C3CCNCC3)c2)cnc1N)c1c(Cl)ccc(F)c1Cl [Crizotinib] |  |  | 2 |  | 800 |  |  |  |  |  | 700 |  | 140 |  | 3000 | potent submicromolar activity | single-digit micromolar activity | IC50 (H2228): 311 nM; Phosphatidylserine exposure (%) 24h (uninfected RBCs [1]): 1%; Phosphatidylserine exposure (%) 72h (uninfected RBCs [1]): 5%; logP (octanol-water partition coefficient), experimental [3]: Crizotinib [drawing 15] (450.3; 1.83^2); hemolysis at 24 h, 5 x P. falciparum 3D7-IC50 (in vitro): 1%; hemolysis at 48 h, 5 x P. falciparum 3D7-IC50 (in vitro): 9%; hemolysis at 72 h, 5 x P. falciparum 3D7-IC50 (in vitro): 14% |
| CC(=O)Nc1cccc(-n2c(=O)n(C3CC3)c(=O)c3c(Nc4ccc(I)cc4F)n(C)c(=O)c(C)c32)c1 [Trametinib] | 90 | 2 | 2 | 5 | 100 | 110 | -1 | 7 | 15 | 6000 |  | ~100 |  | > 30 |  | potent submicromolar activity | single-digit micromolar activity | hemolysis of RBCs, in words (uninfected RBCs [4]): similarly low levels; IC50 (MEF): 1.6 to 4.8 nM; PS exposure on RBCs, in words (uninfected RBCs [1]; 5x P. falciparum 3D7-IC50, 24, 48, 72h): similarly low levels; survival of infected mice (Plasmodium berghei): improve survival of infected mice; reduction in the IC50 of chloroquine in combination with fixed, sublethal dose of test compound (P. falciparum 3D7): ≤ 2 fold; reduction in the IC50 of mefloquine in combination with fixed, sublethal dose of test compound (P. falciparum 3D7): ≤ 2 fold; inhibitory activity following transient exposure of RBCs, in words (P. falciparum (3D7)): does not persist beyond transient exposure |

— PMC10988762, “Inhibition of malaria and babesiosis parasites by putative red blood cell targeting small molecules” (Frontiers in Cellular and Infection Microbiology, 2024)
